How the values were obtained:
[1] = system: ymr007w heterozygous strain; assay: Microarray fold transcriptional induction of stress response genes; assay type: cell-based, Saccharomyces cerevisiae; conditions: ymr007w heterozygote, tunicamycin 0.6 μM, 1 hr, relative to wildtype no drug
Description: (§1) In order to identify stress response genes suitable for use in the methods of the present invention, the induction of various stress response genes was tested using microarrays. Three 50 ml cultures were grown at 30° C., a wildtype strain, an alg7 heterozygous strain, and a ymr007w heterozygous strain (the ymr007w strain has been previously shown to be sensitive to tunicamycin, see Giaever, G. et al. (1999) Nature Genet. 21(3):278-283). The wildtype strain was grown in the absence of drug as well as in the presence of […] tunicamycin at an O.D.600 of 1, or approximately 2×10^7 cells/ml for one hour. The alg7 and ymr007w heterozygotes were grown in the presence of […] tunicamycin at an O.D.600 of 1, or approximately 2×10^7 cells/ml for 1 hour. mRNA was then collected from all four samples using standard techniques. cDNA was then prepared from […] of polyadenylated RNA from each sample, using a dT21 primer and Superscript II reverse transcriptase (GibcoBRL) according to manufacturer's recommendation. cDNA was fragmented using DNAseI (GibcoBRL), biotinylated using ddATP (NEN) and Terminal Transferase (Boehringer), and hybridized to yeast full genome arrays (Affymetrix) as described in L. Wodicka et al. (1997) Nature Biotechnol. 15, 1359-1367. Data was analyzed using Affymetrix software.
(§2) In other experiments, the alg 7 and vmr007 heterozygous deletion strains were tested for induction of the stress response in the presence of 0.6 μM tunicamycin for 1 hr (for detailed methods see Example 4). The numbers indicate the fold induction (positive values) or the fold repression (negative values) relative to that of wildype expression in the absence of drug.

alg7 heterozygous strain [2] = assay: as above; assay type: cell-based, Saccharomyces cerevisiae; conditions: alg7 heterozygote, tunicamycin 0.6 μM, 1 hr, relative to wildtype no drug
Description: as §1, §2

ymr007w strain = conditions: previously shown, Giaever et al. 1999; cited from earlier work
alg7 heterozygous strain [3] = conditions: cited from earlier work
Wildtype strain [4] = assay: Microarray fold transcriptional induction of stress response genes; assay type: cell-based, Saccharomyces cerevisiae
Description: as §1
The fold induction of the indicated stress response gene is relative to expression levels in the absence of exposure to the indicated stimuli for the wildtype strain.

alg7 heterozygote = assay: HSP26 promoter GFP-uv reporter stress response, fluorimeter; assay type: cell-based, Saccharomyces cerevisiae; parameters: key: F = fluorescent activity from hsp reporter construct, indicating stress response is induced; NF = no fluorescence, no induction of stress response; conditions: predicted expectations
Source text: (§3) Stress response gene reporter constructs are generally constructed as follows: approximately 500 bp to approximately 1,000 bp or more region upstream of the first start codon of the stress gene of interest (the region encompassing the stress response gene promoter) is fused to the coding region of a reporter polypeptide (e.g., GFP-uv in pRS316 (Sikorski and Hieter (1989) Genetics 122(1):19-27, Clontech). In a specific exemplary construct, approximately 500 bp of the sequence upstream of the hsp26 gene were ligated to the coding region of GFP-uv in pRS316 to provide for expression of the GFP-uv reporter polypeptide under control of the HSP26 promoter.
(§4) 80% of all heterozygous deletion strains of Saccharomyces cerevisiae have been constructed. Heterozygous deletion strains were generated using homologous gene transplacement (Rothstein, R. (1991) Meth. Enzymol. 194:281-301) in wild-type diploid strains using standard methods. The resulting heterozygotes carry a deletion in one of the two copies of a given gene.
(§5) The above-described HSP26 construct and a control construct (containing no upstream HSP26 promoter sequence) is transformed into 4 strains: a wildtype strain and strains heterozygous for ALG7, HIS3, and TUB2. The his3 heterozygous strain is sensitive to 3-amino triazole; the alg7 heterozygous strain is sensitive to tunicamycin; and the tub2 heterozygous strain is sensitive to benomyl. The expression of hsp26 activity is then monitored using a fluorimeter. Comparisons (with predicted expectations) are as follows: […]

his3 heterozygote = assay: as above; assay type: cell-based, Saccharomyces cerevisiae; parameters: key: F = fluorescent activity from hsp reporter construct, indicating stress response is induced; NF = no fluorescence, no induction of stress response; conditions: predicted expectations
Source text: as §3, §4, §5

tub2 heterozygote = assay: as above; assay type: cell-based, Saccharomyces cerevisiae; parameters: key: F = fluorescent activity from hsp reporter construct, indicating stress response is induced; NF = no fluorescence, no induction of stress response; conditions: predicted expectations
Source text: as §3, §4, §5

Wildtype strain [5] = assay: as above; assay type: cell-based, Saccharomyces cerevisiae; parameters: key: F = fluorescent activity from hsp reporter construct, indicating stress response is induced; NF = no fluorescence, no induction of stress response; conditions: predicted expectations
Source text: as §3, §5

[6] = system: yeast stress response genes; conditions: published data, cited from earlier work
[7] = TUN 0.6 μM, wildtype, relative to no drug
[8] = Wildtype, tunicamycin 0.6 μM, 1 hr, relative to wildtype no drug (Table 9)

tunicamycin
fold induction (positive) or fold repression (negative) of HSP26 (YBR072W) [1]: 1.4 fold | fold induction (positive) or fold repression (negative) of HXT5 (YHR096C) [1]: 1 fold | fold induction (positive) or fold repression (negative) of YMR107W [1]: 1 fold | fold induction (positive) or fold repression (negative) of HXT5 (YHR096C) (alg7 heterozygous strain [2]): 1 fold | fold induction (positive) or fold repression (negative) of YMR107W (alg7 heterozygous strain [2]): 1 fold | sensitivity of strain to drug (ymr007w strain): sensitive | sensitivity of strain to drug (alg7 heterozygous strain [3]): sensitive | fold induction of AMS1 (YGL156W) (Wildtype strain [4]; [7]): 20 fold | fold induction of DDR48 (YMR173w) (Wildtype strain [4]; [7]): 4.3 fold | fold induction of GFA1 (YKL104C) (Wildtype strain [4]; [7]): 11.2 fold | fold induction of GSC2 (YGR032W) (Wildtype strain [4]; [7]): 9.2 fold | fold induction of HSP10 (YOR020C) (Wildtype strain [4]; [7]): 2 fold | fold induction of HSP12 (YFL014W) (Wildtype strain [4]; [7]): 2.9 fold | fold induction of HSP26 (YBR072W) (Wildtype strain [4]; [7]): 18 fold | fold induction of HSP30 (YCR021C) (Wildtype strain [4]; [7]): 2 fold | fold induction of HSP42 (YDR171w) (Wildtype strain [4]; [7]): 6 fold | fold induction of HSP60 (YLR259C) (Wildtype strain [4]; [7]): 1 fold | fold induction of HSP78 (YDR258C) (Wildtype strain [4]; [7]): 6.5 fold | fold induction of HSP82 (YPL240C) (Wildtype strain [4]; [7]): 2.8 fold | fold induction of HSP104 (YLL026W) (Wildtype strain [4]; [7]): 2 fold | fold induction of HXT5 (YHR096C) (Wildtype strain [4]; [7]): 200 fold | fold induction of ISF1 (YMR081C) (Wildtype strain [4]; [7]): 3.5 fold | fold induction of PAI3 (YMR174C) (Wildtype strain [4]; [7]): 6.1 fold | fold induction of PRY1 (YJL079C) (Wildtype strain [4]; [7]): 13 fold | fold induction of PUT1 (YLR142W) (Wildtype strain [4]; [7]): 25 fold | fold induction of SNZ3 (YFL059W) (Wildtype strain [4]; [7]): 25 fold | fold induction of SSA1 (YAL005C) (Wildtype strain [4]; [7]): 1 fold | fold induction of TSI1 (YLR178C) (Wildtype strain [4]; [7]): 6.2 fold | fold induction of UBC5 (YDR059c) (Wildtype strain [4]; [7]): 2.1 fold | fold induction of YBL049W (Wildtype strain [4]; [7]): 15 fold | fold induction of YDR018C (Wildtype strain [4]; [7]): 7.5 fold | fold induction of YFL030W (Wildtype strain [4]; [7]): 11 fold | fold induction of YFR026C (Wildtype strain [4]; [7]): 20.9 fold | fold induction of YGR043C (Wildtype strain [4]; [7]): 17 fold | fold induction of YIL042C (Wildtype strain [4]; [7]): 5 fold | fold induction of YIL117C (Wildtype strain [4]; [7]): 13 fold | fold induction of YJL144W (Wildtype strain [4]; [7]): 19.1 fold | fold induction of YKL107W (Wildtype strain [4]; [7]): 112 fold | fold induction of YLR053C (Wildtype strain [4]; [7]): 200 fold | fold induction of YLR080W (Wildtype strain [4]; [7]): 8.4 fold | fold induction of YLR194C (Wildtype strain [4]; [7]): 5.1 fold | fold induction of YMR040W (Wildtype strain [4]; [7]): 12.8 fold | fold induction of YMR090W (Wildtype strain [4]; [7]): 5.6 fold | fold induction of YMR107W (Wildtype strain [4]; [7]): 79 fold | fold induction of YNL194C (Wildtype strain [4]; [7]): 4.5 fold | fold induction of YPS3 (YLR121C) (Wildtype strain [4]; [7]): 15 fold | fold induction (positive) or fold repression (negative) of HSP26 (YBR072W) (Wildtype strain [4]; [8]): 17 fold | fold induction (positive) or fold repression (negative) of HXT5 (YHR096C) (Wildtype strain [4]; [8]): 50 fold | fold induction (positive) or fold repression (negative) of YGR043C (Wildtype strain [4]; [8]): 17 fold | fold induction (positive) or fold repression (negative) of YMR107W (Wildtype strain [4]; [8]): 40 fold | fold induction (positive) or fold repression (negative) of YPS3 (YLR121C) (Wildtype strain [4]; [8]): 15 fold | fluorescent activity from hsp26 reporter construct (alg7 heterozygote): NF | fluorescent activity from hsp26 reporter construct (his3 heterozygote): F | fluorescent activity from hsp26 reporter construct (tub2 heterozygote): F | fluorescent activity from hsp26 reporter construct (Wildtype strain [5]): F

C=CC[C@@H]1/C=C(\C)C[C@H](C)C[C@H](OC)[C@H]2O[C@@](O)(C(=O)C(=O)N3CCCC[C@H]3C(=O)O[C@H](/C(C)=C/[C@@H]3CC[C@@H](O)[C@H](OC)C3)[C@H](C)[C@@H](O)CC1=O)[C@H](C)C[C@@H]2OC [FK506]
fold induction of DDR48 (YMR173w) ([6]; FK506 50 μM): 1 fold | fold induction of HSP10 (YOR020C) ([6]; FK506 50 μM): 1 fold | fold induction of HSP12 (YFL014W) ([6]; FK506 50 μM): 1 fold | fold induction of HSP26 (YBR072W) ([6]; FK506 50 μM): 7.1 fold | fold induction of HSP30 (YCR021C) ([6]; FK506 50 μM): 2.3 fold | fold induction of HSP42 (YDR171w) ([6]; FK506 50 μM): 8.7 fold | fold induction of HSP60 (YLR259C) ([6]; FK506 50 μM): 1 fold | fold induction of HSP78 (YDR258C) ([6]; FK506 50 μM): 1 fold | fold induction of HSP82 (YPL240C) ([6]; FK506 50 μM): 1 fold | fold induction of HSP104 (YLL026W) ([6]; FK506 50 μM): 1 fold | fold induction of SSA1 (YAL005C) ([6]; FK506 50 μM): 1 fold | fold induction of UBC5 (YDR059c) ([6]; FK506 50 μM): 1.1 fold | fold induction of AMS1 (YGL156W) ([6]; FK506 50 μm): 2.2 fold | fold induction of GFA1 (YKL104C) ([6]; FK506 50 μm): 1 fold | fold induction of GSC2 (YGR032W) ([6]; FK506 50 μm): 1.1 fold | fold induction of HXT5 (YHR096C) ([6]; FK506 50 μm): 1.6 fold | fold induction of ISF1 (YMR081C) ([6]; FK506 50 μm): 5.4 fold | fold induction of PAI3 (YMR174C) ([6]; FK506 50 μm): 1 fold | fold induction of PRY1 (YJL079C) ([6]; FK506 50 μm): 1 fold | fold induction of PUT1 (YLR142W) ([6]; FK506 50 μm): 7.6 fold | fold induction of SNZ3 (YFL059W) ([6]; FK506 50 μm): 6.3 fold | fold induction of TSI1 (YLR178C) ([6]; FK506 50 μm): 1.3 fold | fold induction of YBL049W ([6]; FK506 50 μm): 6.7 fold | fold induction of YDR018C ([6]; FK506 50 μm): 8.9 fold | fold induction of YFL030W ([6]; FK506 50 μm): 2 fold | fold induction of YFR026C ([6]; FK506 50 μm): 3.7 fold | fold induction of YGR043C ([6]; FK506 50 μm): 2.1 fold | fold induction of YIL042C ([6]; FK506 50 μm): 2.7 fold | fold induction of YIL117C ([6]; FK506 50 μm): 1 fold | fold induction of YJL144W ([6]; FK506 50 μm): 7.6 fold | fold induction of YKL107W ([6]; FK506 50 μm): 2.5 fold | fold induction of YLR053C ([6]; FK506 50 μm): 5.5 fold | fold induction of YLR080W ([6]; FK506 50 μm): 5.5 fold | fold induction of YLR194C ([6]; FK506 50 μm): 1 fold | fold induction of YMR040W ([6]; FK506 50 μm): 1.6 fold | fold induction of YMR090W ([6]; FK506 50 μm): 1.2 fold | fold induction of YMR107W ([6]; FK506 50 μm): 5.9 fold | fold induction of YNL194C ([6]; FK506 50 μm): 6.3 fold | fold induction of YPS3 (YLR121C) ([6]; FK506 50 μm): 2.5 fold

— US6743583B2, “Identification of drugs and drug targets by detection of the stress response” (priority 2000, dated 2004)
